Results: paper PMC6026066 (Nature, 2018)

Key:
[1] = molecular target: T1, HRV-C RdRp (rhinovirus C15, UniProt E5D8F2); assay: primer extension RNA synthesis, denaturing PAGE; assay type: biochemical
T1 sequence (E5D8F2 1694-2153): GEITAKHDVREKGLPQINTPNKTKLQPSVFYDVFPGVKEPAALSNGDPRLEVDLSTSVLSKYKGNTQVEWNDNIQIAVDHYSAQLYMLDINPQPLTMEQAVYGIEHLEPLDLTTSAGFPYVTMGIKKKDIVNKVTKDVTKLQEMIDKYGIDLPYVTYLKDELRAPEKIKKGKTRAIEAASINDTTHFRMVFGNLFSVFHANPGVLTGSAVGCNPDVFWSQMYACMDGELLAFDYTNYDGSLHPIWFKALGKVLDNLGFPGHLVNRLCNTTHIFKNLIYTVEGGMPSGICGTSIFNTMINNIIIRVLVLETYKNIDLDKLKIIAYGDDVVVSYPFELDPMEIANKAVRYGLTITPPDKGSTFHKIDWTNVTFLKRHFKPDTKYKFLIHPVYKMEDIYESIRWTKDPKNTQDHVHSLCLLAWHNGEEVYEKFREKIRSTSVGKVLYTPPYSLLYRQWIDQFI

[2] = molecular target: T2, Hs CMPK2 (Homo sapiens, UniProt Q5EBM0); assay: kinase assay, CTP formation; assay type: biochemical; conditions: 1 mM CDP; phosphate donor ATP or GTP; 5 μM enzyme
T2 sequence (Q5EBM0 99-449): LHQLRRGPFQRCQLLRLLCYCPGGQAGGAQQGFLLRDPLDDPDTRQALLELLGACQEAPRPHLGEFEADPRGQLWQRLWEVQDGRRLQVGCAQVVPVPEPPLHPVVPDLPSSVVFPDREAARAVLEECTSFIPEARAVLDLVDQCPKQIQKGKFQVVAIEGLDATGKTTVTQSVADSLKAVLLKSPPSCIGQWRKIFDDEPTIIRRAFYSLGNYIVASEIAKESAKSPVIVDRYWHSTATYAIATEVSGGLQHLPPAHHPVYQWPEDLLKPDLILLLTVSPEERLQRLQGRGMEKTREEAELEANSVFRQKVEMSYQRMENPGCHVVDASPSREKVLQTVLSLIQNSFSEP

[3] = molecular target: T2, Hs CMPK2; assay: kinase assay, UTP formation; assay type: biochemical; conditions: 1 mM UDP; phosphate donor ATP or GTP; 5 μM enzyme
[4] = molecular target: DV RdRp (Dengue virus 2 Peru/IQT2913/1996, UniProt Q9WDA6); assay: primer extension RNA synthesis, denaturing PAGE; assay type: biochemical; conditions: 0.1 μM CTP; competes with CTP; incorporated as chain terminator
[5] = molecular target: T3, Hs viperin (Homo sapiens, UniProt Q8WXG1); assay: LC/MS of extracts of transfected HEK293T cells; assay type: cell-based; conditions: endogenous CTP and SAM; vector control
T3 sequence (Q8WXG1 1-361): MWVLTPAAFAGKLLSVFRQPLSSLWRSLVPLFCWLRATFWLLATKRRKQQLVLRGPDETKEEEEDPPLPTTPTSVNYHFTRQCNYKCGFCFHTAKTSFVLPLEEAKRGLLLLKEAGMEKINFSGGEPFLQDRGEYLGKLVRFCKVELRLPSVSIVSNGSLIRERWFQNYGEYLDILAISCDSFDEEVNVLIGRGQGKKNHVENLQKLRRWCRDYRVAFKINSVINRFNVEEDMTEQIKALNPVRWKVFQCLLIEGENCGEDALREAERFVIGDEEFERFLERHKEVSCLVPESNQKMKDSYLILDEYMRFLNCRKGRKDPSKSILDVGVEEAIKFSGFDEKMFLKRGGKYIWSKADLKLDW

[6] = molecular target: PV RdRp (Human poliovirus 1 Mahoney, UniProt P03300); assay type: biochemical
[7] = molecular target: WNV RdRp (West Nile virus strain NY-99, UniProt Q9Q6P4); assay: primer extension RNA synthesis, denaturing PAGE; assay type: biochemical
Chain of WNV RdRp (Q9Q6P4 2529-3433): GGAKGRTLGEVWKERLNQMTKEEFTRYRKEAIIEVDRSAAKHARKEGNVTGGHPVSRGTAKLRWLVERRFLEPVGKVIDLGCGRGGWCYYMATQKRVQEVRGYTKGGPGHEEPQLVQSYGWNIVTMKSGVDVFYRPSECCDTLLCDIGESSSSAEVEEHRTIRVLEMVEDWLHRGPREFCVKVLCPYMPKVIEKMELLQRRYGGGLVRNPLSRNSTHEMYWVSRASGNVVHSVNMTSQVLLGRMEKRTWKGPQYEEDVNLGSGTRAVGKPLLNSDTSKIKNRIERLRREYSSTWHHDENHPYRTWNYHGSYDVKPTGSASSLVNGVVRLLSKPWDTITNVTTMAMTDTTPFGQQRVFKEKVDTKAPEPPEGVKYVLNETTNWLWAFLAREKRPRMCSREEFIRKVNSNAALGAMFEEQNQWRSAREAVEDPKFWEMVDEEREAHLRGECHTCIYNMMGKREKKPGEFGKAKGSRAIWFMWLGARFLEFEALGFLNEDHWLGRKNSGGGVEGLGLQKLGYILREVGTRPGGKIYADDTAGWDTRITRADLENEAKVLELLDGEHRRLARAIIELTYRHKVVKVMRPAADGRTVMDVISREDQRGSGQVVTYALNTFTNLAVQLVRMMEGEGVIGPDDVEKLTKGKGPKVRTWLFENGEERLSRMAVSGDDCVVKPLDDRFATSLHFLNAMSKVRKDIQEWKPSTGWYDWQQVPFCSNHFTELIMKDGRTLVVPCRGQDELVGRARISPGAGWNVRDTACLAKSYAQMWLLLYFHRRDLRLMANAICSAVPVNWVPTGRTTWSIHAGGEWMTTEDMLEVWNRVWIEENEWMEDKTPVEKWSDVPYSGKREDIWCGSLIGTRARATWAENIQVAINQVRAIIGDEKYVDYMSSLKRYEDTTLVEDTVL

Chain of DV RdRp (Q9WDA6 2492-3391): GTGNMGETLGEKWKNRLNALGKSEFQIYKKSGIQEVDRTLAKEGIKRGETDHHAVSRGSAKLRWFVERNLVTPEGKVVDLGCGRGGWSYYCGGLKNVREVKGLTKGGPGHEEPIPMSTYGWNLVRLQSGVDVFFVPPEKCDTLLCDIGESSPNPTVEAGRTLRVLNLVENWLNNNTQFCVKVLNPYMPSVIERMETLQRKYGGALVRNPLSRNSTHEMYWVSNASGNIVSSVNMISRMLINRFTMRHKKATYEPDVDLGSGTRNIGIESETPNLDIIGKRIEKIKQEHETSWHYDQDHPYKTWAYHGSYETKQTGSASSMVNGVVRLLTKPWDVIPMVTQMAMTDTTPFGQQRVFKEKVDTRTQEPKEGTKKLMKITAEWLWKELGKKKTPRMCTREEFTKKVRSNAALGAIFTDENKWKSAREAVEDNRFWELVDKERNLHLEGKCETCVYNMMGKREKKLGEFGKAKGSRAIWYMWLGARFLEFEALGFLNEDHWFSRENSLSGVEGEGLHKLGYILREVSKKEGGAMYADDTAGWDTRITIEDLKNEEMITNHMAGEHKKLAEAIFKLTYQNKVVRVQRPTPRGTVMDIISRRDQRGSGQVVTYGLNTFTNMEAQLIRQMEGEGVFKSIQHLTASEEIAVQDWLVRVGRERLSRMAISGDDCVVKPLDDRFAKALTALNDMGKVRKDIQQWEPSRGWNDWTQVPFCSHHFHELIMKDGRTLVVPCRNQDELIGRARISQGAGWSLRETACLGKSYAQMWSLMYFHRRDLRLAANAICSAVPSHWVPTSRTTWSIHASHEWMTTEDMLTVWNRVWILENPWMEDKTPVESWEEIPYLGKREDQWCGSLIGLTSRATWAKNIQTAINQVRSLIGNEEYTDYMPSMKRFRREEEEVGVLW
Chain of PV RdRp (P03300 1749-2209 limits assumed): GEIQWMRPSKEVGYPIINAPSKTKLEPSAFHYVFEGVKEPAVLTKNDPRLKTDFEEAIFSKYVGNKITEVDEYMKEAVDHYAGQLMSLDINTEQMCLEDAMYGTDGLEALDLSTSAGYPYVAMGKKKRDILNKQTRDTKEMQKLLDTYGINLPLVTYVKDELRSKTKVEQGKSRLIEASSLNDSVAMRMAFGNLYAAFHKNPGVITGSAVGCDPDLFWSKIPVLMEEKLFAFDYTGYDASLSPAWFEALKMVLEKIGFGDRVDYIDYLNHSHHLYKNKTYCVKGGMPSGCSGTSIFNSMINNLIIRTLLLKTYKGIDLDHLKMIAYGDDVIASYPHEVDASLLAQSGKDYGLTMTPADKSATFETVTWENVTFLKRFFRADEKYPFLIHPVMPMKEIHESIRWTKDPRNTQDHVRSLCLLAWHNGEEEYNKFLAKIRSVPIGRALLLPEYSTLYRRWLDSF

`Nc1ccn([C@@H]2O[C@H](COP(=O)(O)OP(=O)(O)OP(=O)(O)O)C[C@H]2O)c(=O)n1` [3′-dCTP] was tested. Which IC50 [1] did it give?
The IC50 was 5 ± 1 µM.

How did the “kinase assay, CTP formation” value [2] turn out when `Nc1ccn([C@@H]2O[C@H](COP(=O)(O)OP(=O)(O)O)[C@@H](O)[C@H]2O)c(=O)n1` [CDP] was run?
Its value is “Hs CMPK2 exhibits significant preference for CDP and UDP as substrates”.

`O=c1ccn([C@@H]2O[C@H](COP(=O)(O)OP(=O)(O)O)[C@@H](O)[C@H]2O)c(=O)[nH]1` [UDP] was tested. Which “kinase assay, UTP formation” value [3] did it give?
The value was “Hs CMPK2 exhibits significant preference for CDP and UDP as substrates”.

How did the IC50 [4] turn out when `Nc1ccn([C@@H]2OC(COP(=O)(O)OP(=O)(O)OP(=O)(O)O)=C[C@H]2O)c(=O)n1` [ddhCTP] was run?
The IC50 was 60 ± 10 µM.

What about the IC50 [1] of the same compound?
The IC50 was 900 ± 300 µM.

And the “LC/MS of extracts of transfected HEK293T cells” value [5]?
Its value is “HEK293T cells transfected with the Hs viperin plasmid exhibited considerable intracellular ddhCTP levels”.

What about the “primer extension RNA synthesis, denaturing PAGE” value [6] of the same compound?
Its value is “both HRV-C and PV RdRp were poorly inhibited by ddhCTP”.

And the IC50 [7]?
Its IC50 is 20 ± 10 µM.
